Data: PubChem BioAssay (NCI)
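A five-concentration, 48-hour dose response in 96-well plates underlies each endpoint, interpolated linearly between surrounding concentrations. TGI marks complete inhibition of growth.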

How the values were obtained:
Assay in all cases: growth of human tumour cells (NCI), 48 h
CCRF-CEM leukemia = tested on: CCRF-CEM leukemia
SF-268 CNS = tested on: SF-268 CNS
SK-MEL-28 melanoma = tested on: SK-MEL-28 melanoma
HOP-62 NSCLC = tested on: HOP-62 NSCLC
A549 NSCLC = tested on: A549 NSCLC
OVCAR-8 ovarian = tested on: OVCAR-8 ovarian
HCT-116 colon = tested on: HCT-116 colon
PC-3 prostate = tested on: PC-3 prostate
UACC-257 melanoma = tested on: UACC-257 melanoma
IGROV1 ovarian = tested on: IGROV1 ovarian
SK-MEL-5 melanoma = tested on: SK-MEL-5 melanoma
RXF 393 renal = tested on: RXF 393 renal
ACHN renal = tested on: ACHN renal
T-47D breast = tested on: T-47D breast
SR leukemia = tested on: SR leukemia
M14 melanoma = tested on: M14 melanoma
NCI/ADR-RES ovarian = tested on: NCI/ADR-RES ovarian
MALME-3M melanoma = tested on: MALME-3M melanoma
COLO 205 colon = tested on: COLO 205 colon
SN12C renal = tested on: SN12C renal
NCI-H226 lung = tested on: NCI-H226 lung
BT-549 breast = tested on: BT-549 breast
A498 renal = tested on: A498 renal
K-562 leukemia = tested on: K-562 leukemia
LOX IMVI melanoma = tested on: LOX IMVI melanoma
UO-31 renal = tested on: UO-31 renal
KM12 colon = tested on: KM12 colon
NCI-H460 lung = tested on: NCI-H460 lung
MOLT-4 leukemia = tested on: MOLT-4 leukemia
786-0 renal = tested on: 786-0 renal
HCT-15 colon = tested on: HCT-15 colon
MDA-MB-231 breast = tested on: MDA-MB-231 breast
DU-145 prostate = tested on: DU-145 prostate
MDA-MB-435 = tested on: MDA-MB-435
SK-MEL-2 melanoma = tested on: SK-MEL-2 melanoma
NCI-H23 lung = tested on: NCI-H23 lung
TK-10 renal = tested on: TK-10 renal
SK-OV-3 ovarian = tested on: SK-OV-3 ovarian
U251 CNS = tested on: U251 CNS
CAKI-1 renal = tested on: CAKI-1 renal
SNB-19 CNS = tested on: SNB-19 CNS
EKVX NSCLC = tested on: EKVX NSCLC
OVCAR-3 ovarian = tested on: OVCAR-3 ovarian
SW-620 colon = tested on: SW-620 colon
UACC-62 melanoma = tested on: UACC-62 melanoma
MCF7 breast = tested on: MCF7 breast
NCI-H522 lung = tested on: NCI-H522 lung
OVCAR-4 ovarian = tested on: OVCAR-4 ovarian
HOP-92 NSCLC = tested on: HOP-92 NSCLC
SNB-75 CNS = tested on: SNB-75 CNS
HCC-2998 colon = tested on: HCC-2998 colon
OVCAR-5 ovarian = tested on: OVCAR-5 ovarian
MDA-N = tested on: MDA-N
HL-60(TB) leukemia = tested on: HL-60(TB) leukemia
HT29 colon = tested on: HT29 colon
RPMI-8226 leukemia = tested on: RPMI-8226 leukemia
HS 578T breast = tested on: HS 578T breast
SF-295 CNS = tested on: SF-295 CNS

SMILES: CO[C@H]1O[C@@H]2CO[C@@H](c3ccccc3)O[C@H]2[C@@H]2CC=CCC[C@]12O
- TGI (CCRF-CEM leukemia): > 100 µM
- TGI (SF-268 CNS): 51 µM
- TGI (SK-MEL-28 melanoma): > 100 µM
- TGI (HOP-62 NSCLC): > 100 µM
- TGI (A549 NSCLC): > 100 µM
- TGI (OVCAR-8 ovarian): > 100 µM
- TGI (HCT-116 colon): > 100 µM
- TGI (PC-3 prostate): > 100 µM
- TGI (UACC-257 melanoma): > 100 µM
- TGI (IGROV1 ovarian): > 100 µM
- TGI (SK-MEL-5 melanoma): > 100 µM
- TGI (RXF 393 renal): > 100 µM
- TGI (ACHN renal): > 100 µM
- TGI (T-47D breast): > 100 µM
- TGI (SR leukemia): > 100 µM
- TGI (M14 melanoma): > 100 µM
- TGI (NCI/ADR-RES ovarian): > 100 µM
- TGI (MALME-3M melanoma): 29.3 µM
- TGI (COLO 205 colon): > 100 µM
- TGI (SN12C renal): > 100 µM
- TGI (NCI-H226 lung): > 100 µM
- TGI (BT-549 breast): 69 µM
- TGI (A498 renal): 92.7 µM
- TGI (K-562 leukemia): > 100 µM
- TGI (LOX IMVI melanoma): > 100 µM
- TGI (UO-31 renal): > 100 µM
- TGI (KM12 colon): > 100 µM
- TGI (NCI-H460 lung): > 100 µM
- TGI (MOLT-4 leukemia): 73.3 µM
- TGI (786-0 renal): > 100 µM
- TGI (HCT-15 colon): > 100 µM
- TGI (MDA-MB-231 breast): > 100 µM
- TGI (DU-145 prostate): > 100 µM
- TGI (MDA-MB-435): > 100 µM
- TGI (SK-MEL-2 melanoma): > 100 µM
- TGI (NCI-H23 lung): > 100 µM
- TGI (TK-10 renal): > 100 µM
- TGI (SK-OV-3 ovarian): > 100 µM
- TGI (U251 CNS): > 100 µM
- TGI (CAKI-1 renal): > 100 µM
- TGI (SNB-19 CNS): > 100 µM
- TGI (EKVX NSCLC): > 100 µM
- TGI (OVCAR-3 ovarian): > 100 µM
- TGI (SW-620 colon): > 100 µM
- TGI (UACC-62 melanoma): > 100 µM
- TGI (MCF7 breast): > 100 µM
- TGI (NCI-H522 lung): 31 µM
- TGI (OVCAR-4 ovarian): > 100 µM
- TGI (HOP-92 NSCLC): > 100 µM
- TGI (SNB-75 CNS): > 100 µM
- TGI (HCC-2998 colon): 51.7 µM
- TGI (OVCAR-5 ovarian): > 100 µM
- TGI (MDA-N): > 100 µM
- TGI (HL-60(TB) leukemia): 67 µM
- TGI (HT29 colon): > 100 µM
- TGI (RPMI-8226 leukemia): 90.1 µM
- TGI (HS 578T breast): 18.2 µM
- TGI (SF-295 CNS): > 100 µM
